Experiment [1] has as its system HEK293sieSTAT3(Y640F). In words: drug sensitivity score (DSS), cytotoxicity CellTox Green (DSS (dimensionless)); higher = more cytotoxic; extreme values may be limits of the assay. Particulars: 72 h; STAT3 variant: Y640F (constitutively active). Put shortly: (§1)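 HEK293 cells carrying a STAT3-dependent luciferase reporter and overexpressing wild-type or mutant STAT3 (20 μl at 100,000 cells/ml) were added to compounds acoustically pre-plated at 5 concentrations in 10-fold dilutions in 384-well plates. After 72 hours at 37°C and 5% CO2, CellTox Green fluorescence (485/520 nm) and then CellTiter-Glo luminescence were read on a PHERAstar FS. Values were normalised to negative and positive control wells, and a drug sensitivity score based on dose-response curve area was computed in Breeze. Each value comes from one representative of two experiments.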

In experiment [2] the test system is HEK293sieSTAT3(wt). The description is as above. The following applies: 72 h; STAT3 variant: wild type. Put shortly:
as §1

For experiment [3], the system named is HEK293sieSTAT3(Y640F). In words: drug sensitivity score (DSS), viability CellTiter-Glo (DSS (dimensionless)); higher = more growth inhibition; extreme values may be limits of the assay. The following applies: 72 h; STAT3 variant: Y640F (constitutively active). Put shortly:
as §1

Experiment [4] has as its system HEK293sieSTAT3(wt). The experiment is described as above. Particulars: 72 h; STAT3 variant: wild type. Put shortly: as §1

As for `CC(C)(C)NC(=O)[C@H]1CC[C@H]2[C@@H]3CC[C@H]4NC(=O)C=C[C@]4(C)[C@H]3CC[C@]12C` [Finasteride] (top concentration tested 10000 nM), the drug sensitivity score in experiment [1] is 0.18; in experiment [2] it was 1.18; in experiment [3], 3.82; in experiment [4] it was 1.63.
With `CCCCCCCCc1ccc(CCC(N)(CO)CO)cc1` [Fingolimod] (top concentration tested 10000 nM), the drug sensitivity score in experiment [1] was determined as 5.85; in experiment [2], 7.2; in experiment [3], 6.17; in experiment [4], 8.27.
Taken in the same sequence, the figures for `O=c1[nH]c(=O)n([C@H]2C[C@H](O)[C@@H](CO)O2)cc1F` [Floxuridine] (top concentration tested 10000 nM) were 0.42, 1.28, 27.2 and 29.
Consider `Nc1nc(F)nc2c1ncn2[C@@H]1O[C@H](CO)[C@@H](O)[C@@H]1O` [Fludarabine] (top concentration tested 10000 nM), for which the drug sensitivity score in experiment [1] is 0; in experiment [2], 0; in experiment [3] it was 0.19; in experiment [4] it was 3.07.
`O=c1[nH]cc(F)c(=O)[nH]1` [Fluorouracil] (top concentration tested 10000 nM): the drug sensitivity score stood at 0 in experiment [1], 0 in experiment [2], 6.62 in experiment [3] and 6.27 in experiment [4].
Take `CC(C)C(=O)Nc1ccc([N+](=O)[O-])c(C(F)(F)F)c1` [Flutamide] (top concentration tested 10000 nM): the drug sensitivity score in experiment [1] was determined as 0; in experiment [2] it was 0; in experiment [3], 0.25; in experiment [4], 0.
Take `COc1cc2c(Oc3ccc(NC(=O)C4(C(=O)Nc5ccc(F)cc5)CC4)cc3F)ccnc2cc1OCCCN1CCOCC1` [Foretinib] (top concentration tested 1000 nM): the drug sensitivity score in experiment [1] is 0; in experiment [2], 5.97; in experiment [3], 6.63; in experiment [4], 5.99.
`COc1cc(Nc2ncc(F)c(Nc3ccc4c(n3)N(COP(=O)(O)O)C(=O)C(C)(C)O4)n2)cc(OC)c1OC` [Fostamatinib] (top concentration tested 2500 nM): the drug sensitivity score was determined as 2.07 in experiment [1], 3.18 in experiment [2], 4.33 in experiment [3] and 4.18 in experiment [4].
Regarding `C[C@]12CC[C@@H]3c4ccc(O)cc4C[C@@H](CCCCCCCCC[S+]([O-])CCCC(F)(F)C(F)(F)F)[C@H]3[C@@H]1CC[C@@H]2O` (stereo partly drawn) [Fulvestrant] (top concentration tested 1000 nM), the drug sensitivity score is 0 in experiment [1], 0.46 in experiment [2], 1.69 in experiment [3] and 1.8 in experiment [4].
Taken in the same sequence, the figures for `O=C(NOCCO)c1ccc2cncn2c1Nc1ccc(I)cc1F` [GDC-0623] (top concentration tested 2500 nM) were 0, 0, 0 and 0.
As for `Cn1nccc1Nc1nccc(-c2ccn([C@H](CO)c3ccc(Cl)c(F)c3)c(=O)c2)n1` [GDC-0994] (top concentration tested 10000 nM), the drug sensitivity score is 0 in experiment [1], 0 in experiment [2], 8.52 in experiment [3] and 6.43 in experiment [4].
Turning to `CNc1nc(Nc2cn(C(C)(C)C#N)nc2C)ncc1C(F)(F)F` [GNE-0877] (top concentration tested 1000 nM), the drug sensitivity score in experiment [1] stood at 0; in experiment [2] it was 0; in experiment [3], 3.78; in experiment [4], 0.56.
Turning to `CCNc1nc(Nc2cc(F)c(C(=O)N3CCOCC3)cc2OC)ncc1C(F)(F)F` [GNE-7915] (top concentration tested 1000 nM), the drug sensitivity score in experiment [1] was found to be 0; in experiment [2], 0; in experiment [3], 4.87; in experiment [4] it was 2.71.
Take `CCCc1cc(C)[nH]c(=O)c1CNC(=O)c1cc(-c2ccnc(N3CCN(C)CC3)c2)cc2c1cnn2C(C)C` [GSK343] (top concentration tested 10000 nM): the drug sensitivity score in experiment [1] was 5.89; in experiment [2], 6.89; in experiment [3] it was 6.55; in experiment [4] it was 7.6.
Taken in the same sequence, the figures for `CCCOc1ccn2c(C(C)=O)cc(-c3ccccc3S(C)(=O)=O)c2c1` [GSK2801] (top concentration tested 10000 nM) were 0, 0, 0 and 0.
Regarding `CCOC(=O)CCNc1cc(N2CCc3ccccc3CC2)nc(-c2ccccn2)n1` [GSK-J4] (top concentration tested 100000 nM), the drug sensitivity score stood at 10.8 in experiment [1], 10.9 in experiment [2], 18.8 in experiment [3] and 19.4 in experiment [4].
With `C[C@@H]1C=C2C(=O)O[C@@H]3CC[C@H](C1)[C@]23O` [Galiellalactone] (top concentration tested 25000 nM), the drug sensitivity score in experiment [1] amounted to 0.48; in experiment [2] it was 3.45; in experiment [3] it was 4.57; in experiment [4] it was 4.61.
